# Tested on: cucumber powdery mildew
# Assay: Evaluation test for cucumber powdery mildew (cucumber leaf disc, lesion area after 14 days)
# Format: in vivo
# Details: 500 ppm in acetone; cucumber leaf disc sprayed with spore suspension; 25° C., 12 hours illumination; lesion area after 14 days vs untreated section
# Procedure: Each of the fluorine-containing pyrimidine compounds prepared in Examples 32 and 36 was dissolved in acetone and diluted to a concentration of 500 ppm. Subsequently, a cucumber leaf disc (20 mm in diameter) was put into the diluted acetone solution and completely wetted, and then the cucumber leaf disc was placed so that the back surface of the cucumber leaf disc was in contact with a plain agar medium that had been prepared separately, and air-dried. After air-drying, a spore suspension of the cucumber powdery mildew was uniformly sprayed on the cucumber leaf disc and air-dried. The cucumber leaf disc was then left in a thermostat (25° C., 12 hours illumination), and after 14 days, the area of lesions was examined to calculate the control value. Note that the control value was calculated according to the following formula. In the following formula, “untreated” means that a cucumber leaf disc was wetted with only acetone as a test solution, and “untreated section” means a section of the wetted cucumber leaf disc. [formula]
row,SMILES,Control value
1,"Cc1ccc(Nc2nc(-c3ccccn3)nc(Cl)c2C(F)(F)F)cc1 [Example 32, 6-chloro-N-(4-methylphenyl)-2-(2-pyridyl)-5-(trifluoromethyl)-4-pyrimidinamine]",57.1
2,"Cc1ccc(Nc2nc(-c3cccnc3)nc(Cl)c2C(F)(F)F)cc1 [Example 36, 6-chloro-N-(4-methylphenyl)-2-(3-pyridyl)-5-(trifluoromethyl)-4-pyrimidinamine]",67.9
